Assay results taken from patent US9951063B2, “8-(piperazin-1-yl)-1,2,3,4-tetrahydro-isoquinoline derivatives” (IDORSIA PHARMACEUTICALS LTD, priority 2014, dated 2018).

Target: human CXCR3A (Homo sapiens (Human), UniProt P49682)
Test: FLIPR assay (inhibition of CXCL10-induced calcium signal)
Type: cell-based
Conditions: engineered CHO-K1 cells expressing human CXCR3A coupled to Galpha(16); Fluo-4-AM; CXCL10 agonist 20 nM; mean values where determined several times
Experimental: The bioactivity of compounds is tested in a fluorometric imaging plate reader (FLIPR: Molecular Devices) using engineered CHO-K1 cells expressing the human CXCR3A (GenBank: AY242128) coupled to a G protein (Galpha(16)). Cells are plated the day prior to bioassay in F12 medium supplemented with 10% FBS and G418 and hygromycin antibiotics to maintain recombinant selection. At the day of bioassay, cells are washed and dye loaded for one hour with Fluo-4-AM (Invitrogen) in Hanks Balanced Salt Solution (Invitrogen), buffered with 20 mM Hepes at pH 7.4 and sodium bicarbonate (0.038%), containing 5 mM probenecid. This buffer, but lacking the dye and containing probenecid at a concentration of 2.5 mM, is also used for washing steps (wash buffer); or lacking both dye and probenecid but supplemented with 0.1% BSA for compound dilution steps (dilution buffer). Cells are washed free of excess dye and 60 microliter of wash buffer is added. Stock solutions of test compounds are made up at a concentration of 10 mM in DMSO, and serially diluted in dilution buffer to concentrations required for inhibition dose response curves. After a 10 minute incubation period at 37° C., 10 microliters of each compound dilution are transferred from a compound plate to the plate containing the recombinant cells in the FLIPR instrument according to the manufacturer's instructions. Following basal readings, 10 microliter CXCL10 agonist at a concentration of 20 nM (from Peprotech) is added, again using the FLIPR instrument. Changes in fluorescence are monitored before and after addition of the test compounds. Emission peak values above base level after CXCL10 addition are exported after base line subtraction.
The calculated IC50 values may fluctuate depending on the daily assay performance. Fluctuations of this kind are known to those skilled in the art. In the case where IC50 values have been determined several times for the same compound, mean values are given.

Sequence of human CXCR3A (P49682 whole entry): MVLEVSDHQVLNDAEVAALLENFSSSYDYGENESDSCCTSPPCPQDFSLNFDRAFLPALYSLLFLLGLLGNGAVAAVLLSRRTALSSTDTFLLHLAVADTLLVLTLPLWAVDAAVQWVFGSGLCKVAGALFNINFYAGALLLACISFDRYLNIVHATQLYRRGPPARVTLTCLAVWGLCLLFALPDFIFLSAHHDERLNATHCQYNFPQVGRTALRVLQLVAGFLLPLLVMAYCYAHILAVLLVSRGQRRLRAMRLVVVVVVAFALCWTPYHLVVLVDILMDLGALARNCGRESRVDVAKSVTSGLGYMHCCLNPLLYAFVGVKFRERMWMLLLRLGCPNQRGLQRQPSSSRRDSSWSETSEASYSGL

| IC50 [µM] | Compound |
| --- | --- |
| 0.00447 | Cc1cc(C)n(CC(=O)N2CCN(c3ccc(C(F)(F)F)c4c3CN(c3ncc(Cn5cccn5)s3)CC4)C[C@H]2C)n1 [Example 1, 2-(3,5-Dimethyl-pyrazol-1-yl)-1-{(R)-2-methyl-4-[2-(5-pyrazol-1-ylmethyl-thiazol-2-yl)-5-trifluoromethyl-1,2,3,4-tetrahydro-isoquinolin-8-yl]-piperazin-1-yl}-ethanone] |
| 0.00607 | Cc1cc(C)n(CC(=O)N2CCN(c3ccc(C(F)(F)F)c4c3CN(c3nc(C(F)(F)F)cs3)CC4)C[C@H]2C)n1 [Example 2, 2-(3,5-Dimethyl-pyrazol-1-yl)-1-{(R)-2-methyl-4-[5-trifluoromethyl-2-(4-trifluoromethyl-thiazol-2-yl)-1,2,3,4-tetrahydro-isoquinolin-8-yl]-piperazin-1-yl}-ethanone] |
| 0.0151 | CCc1csc(N2CCc3c(C(F)(F)F)ccc(N4CCN(C(=O)Cn5nc(C)cc5C)[C@H](C)C4)c3C2)n1 [Example 3, 2-(3,5-Dimethyl-pyrazol-1-yl)-1-{(R)-4-[2-(4-ethyl-thiazol-2-yl)-5-trifluoromethyl-1,2,3,4-tetrahydro-isoquinolin-8-yl]-2-methyl-piperazin-1-yl}-ethanone] |
| 0.0206 | Cc1cc(C)n(CC(=O)N2CCN(c3ccc(C(F)(F)F)c4c3CN(c3nc(C(C)(C)C)cs3)CC4)C[C@H]2C)n1 [Example 4, 1-{(R)-4-[2-(4-tert.-Butyl-thiazol-2-yl)-5-trifluoromethyl-1,2,3,4-tetrahydro-isoquinolin-8-yl]-2-methyl-piperazin-1-yl}-2-(3,5-dimethyl-pyrazol-1-yl)-ethanone] |
| 0.011 | Cc1cc(C)n(CC(=O)N2CCN(c3ccc(C(F)(F)F)c4c3CN(c3nc(-c5ccccn5)cs3)CC4)C[C@H]2C)n1 [Example 5, 2-(3,5-Dimethyl-pyrazol-1-yl)-1-{(R)-2-methyl-4-[2-(4-pyridin-2-yl-thiazol-2-yl)-5-trifluoromethyl-1,2,3,4-tetrahydro-isoquinolin-8-yl]-piperazin-1-yl}-ethanone] |
| 0.0181 | Cc1cc(C)n(CC(=O)N2CCN(c3ccc(C(F)(F)F)c4c3CN(c3ncc(Cl)s3)CC4)C[C@H]2C)n1 [Example 6, 1-{(R)-4-[2-(5-Chloro-thiazol-2-yl)-5-trifluoromethyl-1,2,3,4-tetrahydro-isoquinolin-8-yl]-2-methyl-piperazin-1-yl}-2-(3,5-dimethyl-pyrazol-1-yl)-ethanone] |
| 0.0292 | Cc1cc(C)n(CC(=O)N2CCN(c3ccc(C(F)(F)F)c4c3CN(c3nc(C#N)cs3)CC4)C[C@H]2C)n1 [Example 7, 2-(8-{(R)-4-[2-(3,5-Dimethyl-pyrazol-1-yl)-acetyl]-3-methyl-piperazin-1-yl}-5-trifluoromethyl-3,4-dihydro-1H-isoquinolin-2-yl)-thiazole-4-carbonitrile] |
| 0.00888 | Cc1cc(C)n(CC(=O)N2CCN(c3ccc(C(F)(F)F)c4c3CN(c3ncc(C#N)s3)CC4)C[C@H]2C)n1 [Example 8, 2-(8-{(R)-4-[2-(3,5-Dimethyl-pyrazol-1-yl)-acetyl]-3-methyl-piperazin-1-yl}-5-trifluoromethyl-3,4-dihydro-1H-isoquinolin-2-yl)-thiazole-5-carbonitrile] |
| 0.0137 | Cc1ccc2nc(N3CCc4c(C(F)(F)F)ccc(N5CCN(C(=O)Cn6nc(C)cc6C)[C@H](C)C5)c4C3)sc2c1 [Example 9, 2-(3,5-Dimethyl-pyrazol-1-yl)-1-{(R)-2-methyl-4-[2-(6-methyl-benzothiazol-2-yl)-5-trifluoromethyl-1,2,3,4-tetrahydro-isoquinolin-8-yl]-piperazin-1-yl}-ethanone] |
| 0.00945 | Cc1cc(C)n(CC(=O)N2CCN(c3ccc(C(F)(F)F)c4c3CN(c3nc5ccc(F)cc5s3)CC4)C[C@H]2C)n1 [Example 10, 2-(3,5-Dimethyl-pyrazol-1-yl)-1-{(R)-4-[2-(6-fluoro-benzothiazol-2-yl)-5-trifluoromethyl-1,2,3,4-tetrahydro-isoquinolin-8-yl]-2-methyl-piperazin-1-yl}-ethanone] |
| 0.00658 | Cc1cc(C)n(CC(=O)N2CCN(c3ccc(C(F)(F)F)c4c3CN(c3nc5ccc(C#N)cc5s3)CC4)C[C@H]2C)n1 [Example 11, 2-(8-{(R)-4-[2-(3,5-Dimethyl-pyrazol-1-yl)-acetyl]-3-methyl-piperazin-1-yl}-5-trifluoromethyl-3,4-dihydro-1H-isoquinolin-2-yl)-benzothiazole-6-carbonitrile] |
| 0.00939 | Cc1cc(C)n(CC(=O)N2CCN(c3ccc(C(F)(F)F)c4c3CN(c3nc5ccccc5o3)CC4)C[C@H]2C)n1 [Example 12, 1-[(R)-4-(2-Benzooxazol-2-yl-5-trifluoromethyl-1,2,3,4-tetrahydro-isoquinolin-8-yl)-2-methyl-piperazin-1-yl]-2-(3,5-dimethyl-pyrazol-1-yl)-ethanone] |
| 0.00848 | Cc1cc(C)n(CC(=O)N2CCN(c3ccc(C(F)(F)F)c4c3CN(c3cnc(N(C)C)nc3)CC4)C[C@H]2C)n1 [Example 13, 1-{(R)-4-[2-(2-Dimethylamino-pyrimidin-5-yl)-5-trifluoromethyl-1,2,3,4-tetrahydro-isoquinolin-8-yl]-2-methyl-piperazin-1-yl}-2-(3,5-dimethyl-pyrazol-1-yl)-ethanone] |
| 0.0277 | Cc1cc(C)n(CC(=O)N2CCN(c3ccc(C(F)(F)F)c4c3CN(c3ncc(Br)cn3)CC4)C[C@H]2C)n1 [Example 14, 1-{(R)-4-[2-(5-Bromo-pyrimidin-2-yl)-5-trifluoromethyl-1,2,3,4-tetrahydro-isoquinolin-8-yl]-2-methyl-piperazin-1-yl}-2-(3,5-dimethyl-pyrazol-1-yl)-ethanone] |
| 0.00358 | Cc1cc(C)n(CC(=O)N2CCN(c3ccc(C(F)(F)F)c4c3CN(c3cnc(C5CC5)nc3)CC4)C[C@H]2C)n1 [Example 15, 1-{(R)-4-[2-(2-Cyclopropyl-pyrimidin-5-yl)-5-trifluoromethyl-1,2,3,4-tetrahydro-isoquinolin-8-yl]-2-methyl-piperazin-1-yl}-2-(3,5-dimethyl-pyrazol-1-yl)-ethanone] |
| 0.00619 | C[C@@H]1CN(c2ccc(C(F)(F)F)c3c2CN(c2ccccc2)CC3)CCN1C(=O)Cn1cnc2cccnc21 [Example 16, 2-Imidazo[4,5-b]pyridin-3-yl-1-[(R)-2-methyl-4-(2-phenyl-5-trifluoromethyl-1,2,3,4-tetrahydro-isoquinolin-8-yl)-piperazin-1-yl]-ethanone] |
| 0.0092 | COc1ncc(N2CCc3c(C(F)(F)F)ccc(N4CCN(C(=O)Cn5cnc6cccnc65)[C@H](C)C4)c3C2)cn1 [Example 17, 2-Imidazo[4,5-b]pyridin-3-yl-1-{(R)-4-[2-(2-methoxy-pyrimidin-5-yl)-5-trifluoromethyl-1,2,3,4-tetrahydro-isoquinolin-8-yl]-2-methyl-piperazin-1-yl}-ethanone] |
| 0.013 | COc1cccc(N2CCc3c(C(F)(F)F)ccc(N4CCN(C(=O)Cn5cnc6cccnc65)[C@H](C)C4)c3C2)c1 [Example 18, 2-Imidazo[4,5-b]pyridin-3-yl-1-{(R)-4-[2-(3-methoxy-phenyl)-5-trifluoromethyl-1,2,3,4-tetrahydro-isoquinolin-8-yl]-2-methyl-piperazin-1-yl}-ethanone] |
| 0.0117 | COc1nc(OC)nc(N2CCc3c(C(F)(F)F)ccc(N4CCN(C(=O)Cn5cnc6cccnc65)[C@H](C)C4)c3C2)n1 [Example 19, 1-{(R)-4-[2-(4,6-Dimethoxy-[1,3,5]triazin-2-yl)-5-trifluoromethyl-1,2,3,4-tetrahydro-isoquinolin-8-yl]-2-methyl-piperazin-1-yl}-2-imidazo[4,5-b]pyridin-3-yl-ethanone] |
| 0.00777 | CCOc1ncc(N2CCc3c(C(F)(F)F)ccc(N4CCN(C(=O)Cn5cnc6cccnc65)[C@H](C)C4)c3C2)cn1 [Example 20, 1-{(R)-4-[2-(2-Ethoxy-pyrimidin-5-yl)-5-trifluoromethyl-1,2,3,4-tetrahydro-isoquinolin-8-yl]-2-methyl-piperazin-1-yl}-2-imidazo[4,5-b]pyridin-3-yl-ethanone] |
| 0.0299 | C[C@@H]1CN(c2ccc(C(F)(F)F)c3c2CN(c2ccc(Cl)cc2)CC3)CCN1C(=O)Cn1cnc2cccnc21 [Example 21, 1-{(R)-4-[2-(4-Chloro-phenyl)-5-trifluoromethyl-1,2,3,4-tetrahydro-isoquinolin-8-yl]-2-methyl-piperazin-1-yl}-2-imidazo[4,5-b]pyridin-3-yl-ethanone] |
| 0.0107 | CCCc1ncc(N2CCc3c(C(F)(F)F)ccc(N4CCN(C(=O)Cn5cnc6cccnc65)[C@H](C)C4)c3C2)cn1 [Example 22, 2-Imidazo[4,5-b]pyridin-3-yl-1-{(R)-2-methyl-4-[2-(2-propyl-pyrimidin-5-yl)-5-trifluoromethyl-1,2,3,4-tetrahydro-isoquinolin-8-yl]-piperazin-1-yl}-ethanone] |
| 0.0171 | COc1ncc(N2CCc3c(C(F)(F)F)ccc(N4CCN(C(=O)Cn5nc(C)nc5C)[C@H](C)C4)c3C2)cn1 [Example 23, 2-(3,5-Dimethyl-[1,2,4]triazol-1-yl)-1-{(R)-4-[2-(2-methoxy-pyrimidin-5-yl)-5-trifluoromethyl-1,2,3,4-tetrahydro-isoquinolin-8-yl]-2-methyl-piperazin-1-yl}-ethanone] |
